Measured values reported in patent US9756858B2, “Insecticides” (Syngenta Participations AG, priority 2011, dated 2017).

Key:
Format in all cases: in vivo
[1] = tested on: Spodoptera littoralis (Egyptian cotton leafworm); test: Activity against Spodoptera littoralis (larvicide, feeding/residual contact, preventive); conditions: 200 ppm; cotton leaf discs, L1 larvae, 3 days after treatment
Source text: Example B1: Activity Against Spodoptera littoralis (Egyptian Cotton Leafworm) (larvicide, feeding/residual contact activity, preventive) Cotton leaf discs were placed on agar in a 24-well microtiter plate and sprayed with test solutions. After drying, the leaf discs were infested with 5 L1 larvae. The samples were checked for mortality, repellent effect, feeding behaviour, and growth regulation 3 days after treatment.

[2] = tested on: Tetranychus urticae (two-spotted spider mite); test: Activity against Tetranychus urticae (mixed population, feeding/residual contact, preventive); conditions: foliar, 192 h, bean leaf discs, 8 days
Source text: Example B7: Activity Against Tetranychus urticae (Two-Spotted Spider Mite) (mixed population, feeding/residual contact activity, preventive) Bean leaf discs on agar in 24-well microtiter plates are sprayed with test solutions. After drying, the leaf discs are infested with mite populations of mixed ages. 8 days later, discs are checked for egg mortality, larval mortality, and adult mortality.

[3] = tested on: Myzus persicae (green peach aphid); test: Activity against Myzus persicae (mixed population, feeding/residual contact, preventive); conditions: foliar, 144 h, sunflower leaf discs, 6 days incubation
Description: Example B4: Activity Against Myzus Persicae (Green Peach Aphid) (mixed population, feeding/residual contact activity, preventive) Sunflower leaf discs were placed on agar in a 24-well microtiter plate and sprayed with test solutions. After drying, the leaf discs were infested with an aphid population of mixed ages. After an incubation period of 6 days, samples were checked for mortality and special effects (e.g. phytotoxicity).

[4] = tested on: Myzus persicae (green peach aphid); test: Activity against Myzus persicae (mixed population, systemic/feeding, curative); conditions: 144 h, roots of pea seedlings in test solution, 6 days
Source text: Example B5: Activity Against Myzus persicae (Green Peach Aphid) (mixed population, systemic/feeding activity, curative) Roots of pea seedlings, infested with an aphid population of mixed ages, were placed directly in the test solutions. 6 days after introduction, samples were checked for mortality and special effects on the plant.

[5] = tested on: Aphis craccivora; test: Activity against Aphis craccivora (mixed population, contact/feeding), comparison with state of the art; conditions: for Death rate (%) after 5 days: pea seedlings, spray
Description: Comparison of the Insecticidal Activity of Compounds According to the Invention with the Structurally Closest Compound from the State of the Art (Compound No. 39 Described on Page 66 of WO2009/149858): Example B8: Activity Against Aphis craccivora (mixed population, contact/feeding) Pea seedlings, infested with an aphid population of mixed ages, were treated with diluted test solutions in a spray chamber. […]

[6] = tested on: Plutella xylostella (diamond back moth); test: Plutella xylostella (larvicide, feeding/residual contact, preventive); conditions: 200 ppm; artificial diet, L2 larvae, 5 days incubation
Description: Example B3: Plutella xylostella (Diamond Back Moth) (larvicide, feeding/residual contact activity, preventive) 24-well microtiter plate (MTP) with artificial diet was treated with test solutions by pipetting. After drying, the MTP's were infested with larvae (L2) (10-15 per well). After an incubation period of 5 days, samples were checked for larval mortality, antifeedant and growth regulation.

SMILES | pest or weed control at 200 ppm [3] [%] | also measured
COC(c1ccc(Cl)cc1Cl)C(C)NC(=O)c1sc(-c2cccnc2)nc1Cl (centres unmarked) [Compound 1.156] |  | activity [1]: over 80%; pest or weed control at 200 ppm [2]: > 80%
O=C(NC1CSC1)c1sc(-c2cccnc2)nc1Cl [Compound 1.007] | > 80 | pest or weed control at 24 ppm [4]: > 80%
Cc1cc(NC(=O)c2sc(-c3cccnc3)nc2Cl)n(C)n1 [Compound 1.069] | > 80 | 
CC(C)(NC(=O)c1sc(-c2cccnc2)nc1Cl)C(=O)c1cccc(Br)c1 [Compound 1.132] |  | pest or weed control at 200 ppm [2]: > 80%
C[S+]([O-])CCNC(=O)c1sc(-c2cccnc2)nc1Cl (centres unmarked) [Compound 1.145] | > 80 | pest or weed control at 24 ppm [4]: > 80%
O=C(NCC1CCCO1)c1sc(-c2cccnc2)nc1Cl (centres unmarked) [Compound 1.026] | > 80 | 
COC(=O)c1ccc(NC(=O)c2sc(-c3cccnc3)nc2Cl)nc1 [Compound 1.138] |  | pest or weed control at 200 ppm [2]: > 80%
COc1cc(-c2sc(-c3cccnc3)nc2Cl)nc(OC)n1 [Compound 1.160] |  | pest or weed control at 200 ppm [2]: > 80%
CON1CCC(NC(=O)c2sc(-c3cccnc3)nc2Cl)CC1 [Compound 1.120] | > 80 | pest or weed control at 24 ppm [4]: > 80%
CC#CC(C)(C)NC(=O)c1sc(-c2cccnc2)nc1Cl [Compound 1.153] | > 80 | 
O=C(NCC(F)(F)F)c1sc(-c2cccnc2)nc1Cl [Compound 1.005] | > 80 | Death rate (%) after 5 days ([5]; 3 ppm): 0%; Death rate (%) after 5 days ([5]; 12.5 ppm): 0%; Death rate (%) after 5 days ([5]; 25 ppm): 30%; Death rate (%) after 5 days ([5]; 50 ppm): 90%; insecticidal action on Aphis craccivora compared with the compound from the state of the art ([5]; comparison with Comp. 39, especially at 25, 12.5 and 3 ppm): substantially better insecticidal action
CC(C)(C)NC(=O)c1sc(-c2cccnc2)nc1Cl [Compound 1.149] | > 80 | 
C[C@@H](NC(=O)c1sc(-c2cccnc2)nc1Cl)C(F)(F)F [Compound 1.100] | > 80 | 
CS(=O)(=O)c1ccc(CNC(=O)c2sc(-c3cccnc3)nc2Cl)cc1 [Compound 1.021] | > 80 | 
CN(Cc1ccc(Cl)nc1)C(=O)c1sc(-c2cccnc2)nc1Cl [Compound 1.124] |  | pest or weed control at 200 ppm [2]: > 80%
O=C(c1sc(-c2cccnc2)nc1Cl)N1CCC[C@H]1COc1c(Cl)cc(Cl)cc1Cl [Compound 1.096] |  | pest or weed control at 200 ppm [2]: > 80%
O=C(NC1CS(=O)(=O)C1)c1sc(-c2cccnc2)nc1Cl [Compound 1.085] | > 80 | 
O=C(Nc1cccc2ncccc12)c1sc(-c2cccnc2)nc1Cl [Compound 1.053] | > 80 | 
Cc1nc(-c2cccnc2)sc1C(=O)NCC(F)(F)F [Comp. 39, reference compound] |  | Death rate (%) after 5 days ([5]; 3 ppm): 35%; Death rate (%) after 5 days ([5]; 12.5 ppm): 85%; Death rate (%) after 5 days ([5]; 25 ppm): 99%; Death rate (%) after 5 days ([5]; 50 ppm): 99%
CSCC(C)(C)NC(=O)c1sc(-c2cccnc2)nc1Cl [Compound 1.086] | > 80 | pest or weed control at 24 ppm [4]: > 80%
O=C(NC1CCSC1)c1sc(-c2cccnc2)nc1Cl (centres unmarked) [Compound 1.088] | > 80 | pest or weed control at 24 ppm [4]: > 80%
CC1(NC(=O)c2sc(-c3cccnc3)nc2Cl)CSC1 [Compound 1.143] |  | pest or weed control at 24 ppm [4]: > 80%

SMILES | pest or weed control at 200 ppm [3] [%] | also measured
COCC(C)(C#N)NC(=O)c1sc(-c2cccnc2)nc1Cl (centres unmarked) [Compound 1.150] | > 80 | 
O=C(NC1C[S+]([O-])C1)c1sc(-c2cccnc2)nc1Cl (centres unmarked) [Compound 1.089] | > 80 | 
O=C(NCCC1CSC1)c1sc(-c2cccnc2)nc1Cl [Compound 1.148] | > 80 | pest or weed control at 24 ppm [4]: > 80%
O=C(NCCC1CS(=O)(=O)C1)c1sc(-c2cccnc2)nc1Cl [Compound 1.094] | > 80 | 
Clc1csc(C2C=CC=NC2c2sc(-c3cccnc3)nc2Cl)n1 (centres unmarked) [Compound 1.001] |  | activity [6]: over 80%; pest or weed control at 200 ppm [2]: > 80%
O=C(NCc1ccc2c(c1)OCCO2)c1sc(-c2cccnc2)nc1Cl [Compound 1.038] | > 80 | 
Cc1cc(O)nc(NC(=O)c2sc(-c3cccnc3)nc2Cl)n1 [Compound 1.072] | > 80 | 
O=C(NC1CON(CC(F)(F)F)C1=O)c1sc(-c2cccnc2)nc1Cl (centres unmarked) [Compound 1.095] | > 80 | pest or weed control at 24 ppm [4]: > 80%
O=C(NC1C[S+]([O-])C1)c1sc(-c2cccnc2)nc1Cl (centres unmarked) [Compound 1.090] |  | pest or weed control at 24 ppm [4]: > 80%
CC(=O)NCCNC(=O)c1sc(-c2cccnc2)nc1Cl [Compound 1.039] | > 80 | 
CCN1OCC(NC(=O)c2sc(-c3cccnc3)nc2Cl)C1=O (centres unmarked) [Compound 1.093] |  | pest or weed control at 24 ppm [4]: > 80%
C#CC(C)(C)NC(=O)c1sc(-c2cccnc2)nc1Cl [Compound 1.152] | > 80 | 
O=C(NC1CCC1)c1sc(-c2cccnc2)nc1Cl [Compound 1.144] | > 80 | 
O=C(NCC1CCS1)c1sc(-c2cccnc2)nc1Cl (centres unmarked) [Compound 1.147] | > 80 | pest or weed control at 24 ppm [4]: > 80%
COCC#CC(C)(C)NC(=O)c1sc(-c2cccnc2)nc1Cl [Compound 1.130] | > 80 | 
CCCCNC(=O)c1sc(-c2cccnc2)nc1Cl [Compound 1.142] | > 80 | 
O=C(NC1(C2CC2)CC1)c1sc(-c2cccnc2)nc1Cl [Compound 1.119] | > 80 | 
O=C(Nc1ccc(Oc2ccccc2)nc1)c1sc(-c2cccnc2)nc1Cl [Compound 1.079] | > 80 | 
CC(C)(NC(=O)c1sc(-c2cccnc2)nc1Cl)C(=O)c1ccc(Cl)cc1 [Compound 1.131] |  | pest or weed control at 200 ppm [2]: > 80%
Clc1cccc(-c2sc(-c3cccnc3)nc2Cl)n1 [Compound 1.011] | > 80 | 
CSCCNC(=O)c1sc(-c2cccnc2)nc1Cl [Compound 1.146] | > 80 | pest or weed control at 24 ppm [4]: > 80%
